In assay [1] the target is T1, recombinant human FLAP protein (Homo sapiens, UniProt P20292).
T1 construct: made in house; host or cells: Sf9 insect cells (100,000 x g membrane fraction)
T1 sequence (P20292 1-161): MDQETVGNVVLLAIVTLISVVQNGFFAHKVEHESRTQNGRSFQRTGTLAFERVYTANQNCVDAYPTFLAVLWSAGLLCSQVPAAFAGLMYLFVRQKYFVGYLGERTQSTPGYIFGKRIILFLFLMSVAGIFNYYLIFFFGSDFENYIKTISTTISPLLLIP
As to the kind of experiment: FLAP binding assay (Scintillation Proximity Assay, displacement of [125I]L-691,831). The conditions noted are these: recombinant human FLAP membranes, [125I]L-691,831 probe; read-out: FLAP SPA IC50. The protocol: Cell pellets produced from sf9 insect cells expressing recombinant human FLAP protein are resuspended in buffer A [15 mM Tris-HCl (pH 7.5), 2 mM MgCl2, 0.3 mM EDTA, 1 mM PMSF]. The cells are lysed with a Dounce homogenizer and the material is centrifuged at 10,000×g for 10 minutes. The supernatant is then collected and centrifuged at 100,000×g for 60 minutes. To prepare membrane protein for an assay, an aliquot of the 100,000×g pellet is resuspended in 1 ml of buffer A, Dounce homogenized, and finally subjected to polytron mixing (30 seconds). Membrane protein (25 μl, 5 μg) is mixed with WGA SPA beads (Amersham) and stirred for 1 h.
Background: In a scintillation proximity assay essentially only radioactivity close to the scintillant gives light.

Assay [2] concerns synthesis of LTB4 in human whole blood. As to the kind of experiment: human whole blood LTB4 production inhibition assay. Format: cell-based. To be noted: Homo sapiens, heparinized human whole blood, calcimycin 20 μM; read-out: hWB LTB4 IC50. The protocol: Compounds are additionally tested in a human whole blood assay to determine their ability to inhibit the synthesis of LTB4 in a cellular system. Compounds are combined with heparinized human whole blood and incubated for 15 minutes at 37° C. Calcimycin (20 μM final, prepared in phosphate-buffered saline, pH 7.4) is then added and the mixture is incubated for another 30 minutes at 37° C. The samples are centrifuged for 5 min at low speed (1500×g) and the plasma layer is removed. Plasma LTB4 concentrations are then measured using an antibody-based homogenous time-resolved fluorescence method (CisBio, Bedford, Mass.).

Where only a bound is given, the exact number is not on record here.

`COc1ccc(-c2nc(C3(c4ccc(-c5cnc(N)nc5)cc4)CCC3)no2)cc1` [Example 48, 5-(4-{1-[5-(4-Methoxy-phenyl)-1,2,4-oxadiazol-3-yl]-cyclobutyl}-phenyl)-pyrimidin-2-ylamine]: the IC50 amounted to 2.5 nM in assay [1] and 430 nM in assay [2].

As to `COc1cccc(-c2nc(C3(c4ccc(-c5cnc(N)nc5)cc4)CCC3)no2)c1` [Example 49, 5-(4-{1-[5-(3-Methoxy-phenyl)-1,2,4-oxadiazol-3-yl]-cyclobutyl}-phenyl)-pyrimidin-2-ylamine], the results for the IC50 in assay [1] and in assay [2] were 3.7 nM and 660 nM, respectively.

As for `COc1ccc(-c2nc(C3(c4ccc(-c5cnc(N)nc5)cc4)CCC3)no2)cc1OC` [Example 50, 5-(4-{1-[5-(3,4-Dimethoxy-phenyl)-1,2,4-oxadiazol-3-yl]-cyclobutyl}-phenyl)-pyrimidin-2-ylamine], the IC50 in assay [1] came out at 4.4 nM; in assay [2] it was 490 nM.

For the compound `Nc1ncc(-c2ccc(C3(c4noc(-c5ccc(F)cc5)n4)CCC3)cc2)cn1` [Example 51, 5-(4-{1-[5-(4-Fluoro-phenyl)-1,2,4-oxadiazol-3-yl]-cyclobutyl}-phenyl)-pyrimidin-2-ylamine], the IC50 stood at 7 nM in assay [1] and 1000 nM in assay [2].

With `Nc1ncc(-c2ccc(C3(c4noc(-c5cccc(F)c5)n4)CCC3)cc2)cn1` [Example 52, 5-(4-{1-[5-(3-Fluoro-phenyl)-1,2,4-oxadiazol-3-yl]-cyclobutyl}-phenyl)-pyrimidin-2-ylamine], the IC50 in assay [1] is 4.3 nM; in assay [2], 780 nM.

In the case of `Cc1ccc(-c2nc(C3(c4ccc(-c5cnc(N)nc5)cc4)CCC3)no2)cc1Cl` [Example 53, 5-(4-{1-[5-(3-Chloro-4-methyl-phenyl)-1,2,4-oxadiazol-3-yl]-cyclobutyl}-phenyl)-pyrimidin-2-ylamine], the IC50 was determined as 6.2 nM in assay [1] and 580 nM in assay [2].

Turning to `CC(C)(C)c1ccc(-c2nc(C3(c4ccc(-c5cnc(N)nc5)cc4)CCC3)no2)cc1` [Example 54, 5-(4-{1-[5-(4-tert-Butyl-phenyl)-1,2,4-oxadiazol-3-yl]-cyclobutyl}-phenyl)-pyrimidin-2-ylamine], the IC50 stood at 15 nM in assay [1] and 1200 nM in assay [2].

On to `Nc1ncc(-c2ccc(C3(c4noc(-c5ccc(Cl)c(Cl)c5)n4)CCC3)cc2)cn1` [Example 55, 5-(4-{1-[5-(3,4-Dichloro-phenyl)-1,2,4-oxadiazol-3-yl]-cyclobutyl}-phenyl)-pyrimidin-2-ylamine], for which the IC50 in assay [1] was 13 nM; in assay [2] it was 1100 nM.

With `Nc1ncc(-c2ccc(C3(c4noc(-c5ccnc(Cl)c5)n4)CCC3)cc2)cn1` [Example 56, 5-(4-{1-[5-(2-Chloro-pyridin-4-yl)-1,2,4-oxadiazol-3-yl]-cyclobutyl}-phenyl)-pyrimidin-2-ylamine], the IC50 was found to be 8.4 nM in assay [1] and 990 nM in assay [2].

In the case of `Cn1nccc1-c1nc(C2(c3ccc(-c4cnc(N)nc4)cc3)CCC2)no1` [Example 57, 5-(4-{1-[5-(2-methyl-2H-pyrazol-3-yl)-1,2,4-oxadiazol-3-yl]-cyclobutyl}-phenyl)-pyrimidin-2-ylamine], the values for the IC50 in assay [1] and in assay [2] were 1.8 nM and 45 nM, respectively.

Take `Cc1cc(C)c(-c2nc(C3(c4ccc(-c5cnc(N)nc5)cc4)CCC3)no2)c(=O)[nH]1` [Example 58, 3-(3-{1-[4-(2-Amino-pyrimidin-5-yl)-phenyl]-cyclobutyl}-1,2,4-oxadiazol-5-yl)-4,6-dimethyl-1H-pyridin-2-one]: the IC50 in assay [1] is 2 nM; in assay [2] it was more than 5000 nM.

With `Nc1ncc(-c2ccc(C3(c4noc(-c5ccc(C(=O)N6CCC(F)(F)CC6)nc5)n4)CCC3)cc2)cn1` [Example 59, [5-(3-{1-[4-(2-amino-pyrimidin-5-yl)-phenyl]-cyclobutyl}-1,2,4-oxadiazol-5-yl)-pyridin-2-yl]-(4,4-difluoro-piperidin-1-yl)-methanone], the IC50 is 5.1 nM in assay [1] and 130 nM in assay [2].

For orientation: IC50 means the concentration that gives 50% inhibition.
